Results published in patent US5028411A, “Pharmaceutical compositions” (priority 1984, dated 1991).
Read-outs that look alike come from different tables or passages of the source.

Columns and labels:
rat jejunal sac [1] = assay: In vitro permeation of rat jejunal sac by iron complexes
Method: Rats (male Sprague Dawley, 60 g) were killed and the jejunum removed, everted and cut into three segments (4 cm length). The segments were tied at both ends, filled with Krebs Ringer buffer (0.2 ml) and incubated in Krebs Ringer buffer containing the appropriate ^59 Fe compound at 37° C. for periods up to 90 minutes. The contents of the sac were counted for ^59 Fe and measured spectrophotometrically.

[2] = Method: An indication of the properties of a compound in this respect is provided by the value of the partition coefficient (Kpart) obtained on partition between n-octanol and Tris hydrochloride (20 mM, pH 7.4; Tris representing 2-amino-2-hydroxymethylpropane 1,3-diol) at 20° C. and expressed as the ratio (concentration of compound in organic phase)/(concentration of compound in aqueous phase).
Acid washed glassware is used throughout and, following mixing for 1 minute, the aqueous/n-octanol mixture is centrifuged at 1000 g for 30 seconds. The two resulting phases are separated for a concentration determination by spectrophotometry on each.

haemoglobin = assay: Binding to haemoglobin by gel permeation elution profile of 59Fe; conditions: 1 mM complex, NaCl 130 mM, pH 7.4, PD-10 column
human erythrocytes = type: in vitro ADME; conditions: not told
Method: Following this period of incubation an aliquot of the erythrocyte/medium mixture was placed above a layer of silicone oil (.rho.=1.06) and the erythrocytes separated by centrifugation through the oil. The ^59 Fe levels associated with the erythrocytes and the incubation medium were then counted and presented as a distribution ratio (concentration in erythrocytes/concentration in medium).

rat jejunal sac [3] = type: in vitro ADME, rat (male Sprague Dawley)
Source text: The procedure described above was used to compare the uptake of iron from buffer containing differing molar proportions of maltol:iron.

[4] = type: in vivo, cat
Method: (§1) Cats were anaesthetised with chloralase (60 mg/kg) and pentobarbitone sodium (60 mg/kg) (i.p.), having been kept free of food for 18 hours. In each animal the trachea was cannulated to maintain a clear airway and to allow positive pressure artificial respiration if necessary. The left femoral vien was cannulated for the intravenous administration of drugs and physiological saline solution. Arterial blood pressure was monitored by a Washington pressure transducer through a cannula inserted into the femoral artery of the right hind leg. Arterial blood samples were taken at appropriate intervals from a short cannula inserted into an external carotid artery. Body temperature was monitored with a rectal thermometer. Each animal was given heparin (1000 iu/kg) as anticoagulant and additional small amounts of pentabarbitone sodium if needed to maintain a satisfactory level of anaesthesia.
The apparent volume of distribution of the compound was calculated by extrapolation of the log-linear blood concentration curve to zero.
The amount of ^59 Fe administered in this experiment was 4 μCi of 2.2×10^6 cpm.

erythrocyte ghosts = type: binding, human
Source text: Experiments to determine the percentage of ^59 Fe associated with erthrocyte ghosts after lysis confirm this hypothesis. In one experiment, lysis was initiated by a small volume of 10% v/v Triton X100 and in a second experiment by a 10 fold excess of water. […] Such binding is of course undesirable as the complex is likely to remain tightly bound to the membrane by electrostatic interactions and not be transmitted across it.

[5] = test system: bovine serum albumen (BSA); assay: Binding to bovine serum albumen (BSA); conditions: column procedure as for haemoglobin
apotransferrin = assay: Exchange of iron(III) between complex and apotransferrin
Source text: (§2) In order to solubilise iron(III) hydroxide, log Ksol must be greater than 0.

[6] = remark: listed apart in the source
Source text: as §2

[7] = Metabolism of free hydroxypyrone
[8] = Affinity of maltol for copper (II), zinc (II), calcium and magnesium; type: physicochemical; conditions: compared with iron
Source text: as §2

[9] = In vivo test of action of iron compounds in the rat (59Fe into duodenum)
Method: Groups of rats (300-350 g) were anaesthetised with nembutal (0.25 ml) and then with ether. A mid-line incision was made and the ^59 Fe labelled sample (100 μg Fe, 10 μCi) was passed into the lumen of the duodenum via a small incision. The abdominal well was then closed with a suture. The animals were sacrificed 1, 2, 4 and 6 hours after the administration of the compound and the various organs were monitored for their ^59 Fe content. […] In the case of the data for blood and sternum (bone marrow) the counts given are cpm/ml and cpm/g respectively, whilst in all other cases they are the total cpm counts.

[10] = In vivo cat, duodenal: 59Fe blood level and tissue distribution
Method: as §1
In those animals where the iron compounds were to be administered into the duodenum, a mid-line incision was made in the abdomen to reveal the intestines. A cannula was then inserted through a small cut such that its tip rested approximately 5 cm below the opening of the bile duct. The cannula was then sutured in place and the abdominal wall closed with stitches.
The distribution of ^59 Fe in the tissues of the animal after the same duodenal experiment to which FIG. 7 relates were investigated and the typical results are shown in Table 7. The amount of ^59 Fe administered in this experiment was 10 μCi or 5.327×10^6 cpm into a 2.9 kg cat. It will be seen that the distribution of the ^59 Fe after 4 hours was similar to that after intravenous infusion, with low levels in the kidney and urine and high levels in both the spleen and bone marrow.
The distribution of ^59 Fe in the tissues of the animal after the same duodenal experiment were investigated and the typical results are shown in Table 8. The amount of ^59 Fe administered in this experiment was 10 μCi or 2.65×10^6 cpm into a 2.9 kg cat. It will be seen that, although some ^59 Fe entered the tissues, rather low levels were detected in the spleen and bone marrow (sternum) whereas a large proportion of the dose was located in the urine.

[11] = n-octanol/tris hcl, 100 µM, pH 7.4
[12] = iron EDTA duodenal, 2.65×10^6 cpm
[13] = relative to ferric chloride as 1, 37° C.

O=C([O-])CCC(=O)[O-].[Fe+2] [Fe^II succinate]
Relative iron uptake, 15 minutes (rat jejunal sac [1]): 2.0
Relative iron uptake, 60 minutes (rat jejunal sac [1]): 1.0

iron(II) gluconate [Fe^II gluconate]
Relative iron uptake, 15 minutes (rat jejunal sac [1]): 1.6
Relative iron uptake, 60 minutes (rat jejunal sac [1]): 0.8

iron(III) ascorbate [Fe^III ascorbate]
partition coefficient Kpart (concentration in n-octanol/concentration in aqueous phase) [2, 11]: 0.0015
Relative iron uptake, 15 minutes (rat jejunal sac [1]): 0.4
Relative iron uptake, 60 minutes (rat jejunal sac [1]): 0.8

O=C([O-])CC(O)(CC(=O)[O-])C(=O)[O-].[Fe+3] [Fe^III citrate]
Relative iron uptake, 15 minutes (rat jejunal sac [1]): 2.0
Relative iron uptake, 60 minutes (rat jejunal sac [1]): 1.8

Cc1occc(=O)c1[O-].Cc1occc(=O)c1[O-].Cc1occc(=O)c1[O-].[Fe+3] [Iron maltol]
binding to haemoglobin (haemoglobin): no evidence is found for binding
partition coefficient Kpart (concentration in n-octanol/concentration in aqueous phase) [2, 11]: 0.50
time for erythrocyte uptake to reach equilibrium (human erythrocytes): about 15 minutes
Iron uptake into serosal contents of the sac (rat jejunal sac [3]): 30.0 n mole
proportion of total iron present as 3:1 complex (rat jejunal sac [3]; at 2:1 ratio of maltol:iron): 13%
Relative iron uptake, 15 minutes (rat jejunal sac [1]): 40
Relative iron uptake, 60 minutes (rat jejunal sac [1]): 5.8
concentration range over which uptake increased linearly (rat jejunal sac [1]): 500 to 10000 µM
period over which uptake was linear (rat jejunal sac [1]): 90 min
59Fe directed to the bone marrow ([4]; cat, in vivo, iv): approximately 90%
dose located in combined tissue of heart, liver and spleen ([4]; cat, in vivo, iv): approximately 10%
dose located in the urine ([4]; cat, in vivo, iv): less than 0.2%
Net 59Fe content, Heart ([4]; in vivo, iv): 490 cpm/g
Net 59Fe content, Kidney ([4]; in vivo, iv): 546 cpm/g
Net 59Fe content, Liver ([4]; in vivo, iv): 510 cpm/g
Net 59Fe content, Skeletal muscle ([4]; in vivo, iv): 0 cpm/g
Net 59Fe content, Spleen ([4]; in vivo, iv): 14,890 cpm/g
Net 59Fe content, Sternum (bone marrow) ([4]; in vivo, iv): 3,200 cpm/g
Net 59Fe content, Urine ([4]; in vivo, iv): 152 cpm/g
Net total 59Fe content, Heart ([4]; in vivo, iv): 7,056 cpm
Net total 59Fe content, Kidney ([4]; in vivo, iv): 6,661 cpm
Net total 59Fe content, Liver ([4]; in vivo, iv): 53,550 cpm
Net total 59Fe content, Skeletal muscle ([4]; in vivo, iv): 0 cpm
Net total 59Fe content, Spleen ([4]; in vivo, iv): 125,076 cpm
Net total 59Fe content, Urine ([4]; in vivo, iv): < 3,000 cpm
apparent volume of distribution ([4]; in vivo, iv): a value between that of the total extracellular space of the animal and the blood volume
Iron associated with ghosts, Hypotonic lysis (erythrocyte ghosts): < 5%
Iron associated with ghosts, Triton lysis (erythrocyte ghosts): < 1%
binding to bovine serum albumen [5]: little ability to bind to BSA
lability of the complex (apotransferrin): extremely labile
thermodynamic stability constant [6]: 30

O=C([O-])/C=C/C(=O)[O-].[Fe+2] [Fe^II fumarate]
Relative iron uptake, 15 minutes (rat jejunal sac [1]): 4.0
Relative iron uptake, 60 minutes (rat jejunal sac [1]): 1.8

Cc1occc(=O)c1O [maltol, 3-hydroxy-2-methyl-4-pyrone]
partition coefficient Kpart (concentration in n-octanol/concentration in aqueous phase) ([2]; n-octanol/Tris hydrochloride 20 mM, pH 7.4, 10^-4 M, spectrophotometry): 0.66
metabolism [7]: rapidly metabolized
affinity for copper (II), zinc (II), calcium and magnesium [8]: lower affinity
deposition of iron in the bone marrow over time ([9]; 6 hour period): continuously throughout the 6 hour period at an apparently constant rate
affinity for iron (log β3) [6]: 30

O=S(=O)([O-])[O-].[Fe+2] [Fe^II sulphate, iron(II) sulphate]
Relative iron uptake, 15 minutes (rat jejunal sac [1]): 2.4
Relative iron uptake, 60 minutes (rat jejunal sac [1]): 1.4

O=C([O-])CN(CCN(CC(=O)[O-])CC(=O)[O-])CC(=O)[O-].[Fe+3] [Iron EDTA]
plasma levels of radioactivity ([10]; duodenal): hardly exceeded the background level
Net 59Fe content, Heart [10, 12]: 188 cpm/g
Net 59Fe content, Kidney [10, 12]: 1,762 cpm/g
Net 59Fe content, Liver [10, 12]: 499 cpm/g
Net 59Fe content, Skeletal muscle [10, 12]: 117 cpm/g
Net 59Fe content, Spleen [10, 12]: 200 cpm/g
Net 59Fe content, Sternum (bone marrow) [10, 12]: 917 cpm/g
Net 59Fe content, Urine [10, 12]: 36,306 cpm/g
Net total 59Fe content, Heart [10, 12]: 2,878 cpm
Net total 59Fe content, Kidney [10, 12]: 19,913 cpm
Net total 59Fe content, Liver [10, 12]: 29,574 cpm
Net total 59Fe content, Spleen [10, 12]: 880 cpm
Net total 59Fe content, Urine [10, 12]: 544,596 cpm
59Fe levels in the intestine wall and blood ([9]; 100 μg Fe): extremely low
iron transfer to / 59Fe levels in bone marrow and spleen ([9]; 100 μg Fe, compared with maltol complex): reduced rates
59Fe in gut washings ([9]; 100 μg Fe, non-absorbed iron): remain high for 4 hours
dose located in the urine ([4]; cat, in vivo, iv): over 50%
rate constant of the elimination from the blood of the linear phase ([4]; cat, in vivo, iv): 0.023 min⁻¹
Net 59Fe content, Heart ([4]; in vivo, iv): 209 cpm/g
Net 59Fe content, Kidney ([4]; in vivo, iv): 1,134 cpm/g
Net 59Fe content, Liver ([4]; in vivo, iv): 261 cpm/g
Net 59Fe content, Spleen ([4]; in vivo, iv): 162 cpm/g
Net 59Fe content, Sternum (bone marrow) ([4]; in vivo, iv): 1,164 cpm/g
Net 59Fe content, Urine ([4]; in vivo, iv): 62,156 cpm/g
Net total 59Fe content, Heart ([4]; in vivo, iv): 3,248 cpm
Net total 59Fe content, Kidney ([4]; in vivo, iv): 21,770 cpm
Net total 59Fe content, Liver ([4]; in vivo, iv): 19,600 cpm
Net total 59Fe content, Spleen ([4]; in vivo, iv): 1,814 cpm
Net total 59Fe content, Urine ([4]; in vivo, iv): 1,180,900 cpm
kinetics of loss of radioactivity from blood ([4]; in vivo, iv): at least a two-component process
Net 59Fe content, Skeletal muscle ([4]; iron EDTA i.v., adjusted to 2.2×10^6 cpm): 95 cpm/g

[Cl][Fe]([Cl])[Cl] [FeCl3, ferric chloride]
Relative iron uptake, 15 minutes (rat jejunal sac [1]; [13]): 1
Relative iron uptake, 60 minutes (rat jejunal sac [1]; [13]): 1
